Where a SMILES comes first, the peptide text is derived from it. [ ]: non-standard residue; d: D form.
Experiments:
[1] = target: T1, wildtype PH Domain (PHD) of Akt1 (Homo sapiens, UniProt P31749); test: Streptavidin-agarose immunoprecipitation (pulldown), WT; assay type: binding; conditions: streptavidin agarose, 1xTBS, western blot band size, in words
T1 construct: The first 124 N-terminal amino acids from full length Akt1 were used as the PH Domain DNA; made in house; host or cells: E. coli
Procedure: Four biligand candidates were chosen based on their hydrophobicity and sequence homology using principal component analysis (FIG. 25). Biligands were synthesized by coupling the 2° ligand onto Rink Amide Resin on the Titan peptide synthesizer. The amide group on the end of the Lys(N3) was capped by shaking the resin with 2 mL acetic anhydride, 2 mL NMP and 0.5 mL DIEA for 3×10 minutes, then washed with NMP. FMOC-Propargylglycine-Otbu (Pra) was clicked onto the Lys(N3) on the 2° ligand by incubating 2 eq of the Pra amino acid with 2 eq CuI and 2 eq ascorbic acid with 1 eq azide on resin in 20% piperidine/NMP for 3 hours. The resin was washed 5×4 mL with a chelating solution of 1 g sodium diethyldithiocarbamate in 20 mL NMP and 1 mL DIEA. The anchor was then built onto the 2° ligand on bead, and an N-terminal PEG5-biotin tag were added. Assays were performed exactly as for the anchor ligands, except for two key differences. The biligand assays were done with 6 ug of GST-tagged PHD protein, instead of the untagged PHD that was used in the anchor pulldowns. The pull-downs were also conducted out of 1% serum in 1×TBS, as opposed to just 1×TBS.
Pulldown assays were done on Streptavidin Agarose resin from Invitrogen. The resin was incubated with N-terminal biotinylated anchor peptide candidates identified via the ClusterLigand sequence analysis. The anchor candidate coated beads were then incubated with either the wildtype or mutant protein to compare the selectivity of the ligands, as well as the binding ability. The bound protein was eluted and western blotted to compare the amount of protein present for each sample.
Relative protein band sizes were analyzed to compare binding between the anchor candidates and were used to determine selectivity for either wildtype or mutant PH Domain (FIG. 11). […] Both of these ligands look fairly selective for their respective PH Domain.

GST-Akt1(E17K) protein = target: T2, GST-Akt1(E17K) protein (Homo sapiens, UniProt P31749, E17K); test: Ligand-directed tosylate labeling with MALDI-TOF MS of tryptic digests; assay type: binding; conditions: yleaf with N-terminal tosylate-Cy5 (ligand 5), 10x molar excess, two days room temperature
T2 construct: 50 μL of full-length GST-E17K Akt1 from SignalChem was treated with 10× molar excess of the anchor ligand; purchased SignalChem
Source text: The selectivity of the yleaf ligand was further verified using the directed labeling technique reported by Tsukiji et al^19. The approach yields information relative to the binding location of the ligand on the protein target. For this method, a payload is attached to the N-terminus of the targeting yleaf ligand through an electrophilic tosylate linker. Upon ligand binding to the protein target, the payload is transferred onto the protein through a nucleophilic SN2 reaction with proximal nucleophilic amino acid side chains (FIG. 3a). The protein can then be trypsin digested and the identity of the fragments containing the payload can be mapped on the protein surface using mass spectrometry (MS). Thus, the site of ligand binding can be estimated. […]
For the assay, yleaf was modified at the N-terminus to contain a tosylate linker attached to a Cy5 dye molecule to enable easy identification of the labeled and digested protein fragments (FIG. 2a and FIG. 16). […] The labeling of protein target was initially confirmed by visualization on a fluorescent gel reader (FIG. 3b) as well as a Western blotting visualization of an experiment in which a biotin-label was substituted for the fluorescent tag. The labeled protein and an unlabeled control were then trypsin digested from the gel and were analyzed by matrix-assisted laser desorption/ionization time-of-flight (MALDI-TOF) MS (FIGS. 18 and 19). […]

T2 sequence (P31749 whole entry E17K): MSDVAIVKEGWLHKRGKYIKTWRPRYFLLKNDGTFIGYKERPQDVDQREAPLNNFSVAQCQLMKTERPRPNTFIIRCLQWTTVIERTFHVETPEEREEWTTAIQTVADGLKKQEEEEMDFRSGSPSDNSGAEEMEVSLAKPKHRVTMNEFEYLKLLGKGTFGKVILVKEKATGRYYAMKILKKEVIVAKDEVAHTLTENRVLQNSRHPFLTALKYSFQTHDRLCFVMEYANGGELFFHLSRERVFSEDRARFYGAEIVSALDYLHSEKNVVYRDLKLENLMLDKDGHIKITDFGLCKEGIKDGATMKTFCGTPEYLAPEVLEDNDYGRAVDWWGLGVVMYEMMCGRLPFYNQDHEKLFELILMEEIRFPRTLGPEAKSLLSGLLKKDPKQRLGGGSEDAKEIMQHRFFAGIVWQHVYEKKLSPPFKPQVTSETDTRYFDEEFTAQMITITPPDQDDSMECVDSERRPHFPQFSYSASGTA
T1 sequence (P31749 1-124): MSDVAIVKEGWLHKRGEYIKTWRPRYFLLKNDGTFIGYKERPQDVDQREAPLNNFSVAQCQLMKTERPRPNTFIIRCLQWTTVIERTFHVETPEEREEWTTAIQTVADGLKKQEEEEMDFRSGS

Structure (SMILES): CC(C)C[C@@H](NC(=O)[C@H](N)Cc1ccc(O)cc1)C(=O)N[C@H](CCC(=O)O)C(=O)N[C@H](C)C(=O)N[C@H](Cc1ccccc1)C(N)=O [yleaf] (H-[dY][dL][dE][dA][dF]-NH2; N-terminus assumed)
- pulldown of wildtype PH Domain by biotinylated anchor candidates [1]: the least binding to the wildtype
- location of labeled sites on the protein (binding site, off-target binding) (GST-Akt1(E17K) protein): only sites around the expected N-terminal binding site of the yleaf ligand are labeled
